Assay results as given in US8258168B2, “2H or 3H-benzo[E]indazol-1-YL carbamate derivatives, the preparation and therapeutic use thereof” (Sanofi, priority 2004, dated 2012).

Legend:
[1] = biological target: T1, peripheral-type benzodiazepine receptors (PBR or p sites) (Rattus norvegicus, UniProt P16257); test: Binding of [3H]Ro5-4864 to peripheral-type benzodiazepine receptors in rat kidney membranes
T1 construct: After decapitation, the kidney is removed and the tissue is homogenized; from tissue; host or cells: kidney membrane homogenate of male Sprague-Dawley rats

[2] = system: motor neurons of the facial nucleus; test: Test of survival of the motor neurons after sectioning the facial nerve in rats aged 4 days; type: in vivo, rat; conditions: immature rats, facial nerve section, treated for 7 days
Method: Study of the Neuroprotective Activity
Test of Survival of the Motor Neurons after Sectioning the Facial Nerve in Rats Aged 4 Days
After lesion of the facial nerve in immature rats, the motor neurons of the facial nucleus experience neuronal death by apoptosis. Neuronal survival is evaluated using neuronal counting and histological methods.
Immature rats aged 4 days are anaesthetized with pentobarbital (3 mg/kg by the i.p. route). The right facial nerve is exposed and sectioned at its outlet from the stylomastoid foramen. After waking up, the young rats are returned to their mothers and are treated for 7 days with one or two daily administrations, by the oral or intraperitoneal route, at doses ranging from 1 to 10 mg/kg.
7 days after the lesion, the animals are decapitated and the brains are frozen in isopentane at −40° C. The entire facial […] is cut with a cryostat into sections with a width of 10 μm. The motor neurons are stained with cresyl violet and counted using the Histo™ software (Biocom™)

T1 sequence (P16257 whole entry): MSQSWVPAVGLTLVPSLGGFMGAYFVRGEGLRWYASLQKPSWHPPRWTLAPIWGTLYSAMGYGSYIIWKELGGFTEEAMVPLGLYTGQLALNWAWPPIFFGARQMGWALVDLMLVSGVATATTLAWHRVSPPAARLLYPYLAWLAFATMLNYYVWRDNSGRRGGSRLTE

Compound: CCN(CC)C(=O)Oc1c2c(nn1-c1ccncc1)CCc1cc(Cl)ccc1-2.Cl
- melting point: 250 to 251 °C

Compound: CC(C)N(C(=O)Oc1nn(-c2ccncc2)c2c1-c1ccc(Cl)cc1CC2)C(C)C.Cl
- melting point: 146 to 148 °C

Compound: CCN(CC)C(=O)Oc1c2c(ccc3cc(Cl)ccc32)nn1-c1ccc(F)cc1 [compound 56]
- IC50 [1]: 1.4 nM
- % increase in the survival of the neurons (10 mg/kg po) [2]: 74%

Compound: CCN(CC)C(=O)Oc1c2c(nn1-c1ccc(F)cc1)CCc1ccccc1-2 [compound 20]
- IC50 [1]: 2.8 nM
- % increase in the survival of the neurons (10 mg/kg po) [2]: 59%

Compound: CCN(CC)C(=O)Oc1c2c(nn1-c1ccccc1)CCc1cc(Cl)ccc1-2 [compound 14]
- IC50 [1]: 1.6 nM
- % increase in the survival of the neurons (10 mg/kg po) [2]: 38%
